# Reference: patent US7919671B2, “Method for testing a compound for a therapeutic effect and a diagnostic method” (Chempath Oy, priority 2004, dated 2011)
# Biological target: T1, human PAP (Homo sapiens, UniProt P15309)
# T1 sequence (P15309 33-386): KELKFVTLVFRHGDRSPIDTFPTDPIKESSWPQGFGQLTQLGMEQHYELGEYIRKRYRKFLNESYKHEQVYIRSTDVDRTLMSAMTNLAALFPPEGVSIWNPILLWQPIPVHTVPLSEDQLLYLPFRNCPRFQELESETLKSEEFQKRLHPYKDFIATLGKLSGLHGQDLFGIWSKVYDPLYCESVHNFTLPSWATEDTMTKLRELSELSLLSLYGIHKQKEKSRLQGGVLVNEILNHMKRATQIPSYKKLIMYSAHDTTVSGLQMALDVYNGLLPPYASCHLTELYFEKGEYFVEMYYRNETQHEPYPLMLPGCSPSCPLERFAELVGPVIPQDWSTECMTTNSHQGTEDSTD
# Assay: protein overlay assay of PAP binding to immobilized phospholipids (PIP Strips)
# Details: 100 pmole lipid per spot on nitrocellulose strip; 10 μg/ml or 50 μg/ml human PAP, overnight at +4° C.
# Method: (D) The phospholipid binding properties of PAP. Nitrocellulose-immobilized phospholipids at 100 pmole per spot. The lipids, indicated by dashed circles, are: 1. lysophosphatidic acid, 2. lysophosphocholine, 3. PI; 4. PI(3)P; 5. PI(4)P; 6. PI(5)P; 7. phosphatidyletanolamine; 8. phosphatidylcholine; 9. spingosine-1-phosphate; 10. PI(3,4)P2; 11. PI(3,5)P2; 12. PI(4,5)P2; 13. PI(3,4,5)P3; 14. phosphatidic acid; 15. phosphatidylserine; 16. blank. The strip was incubated with human PAP at concentration 10 μg/ml.
# The interaction between PAP and PI lipids was investigated using protein overlay assay.
# The binding of human PAP to phospholipids was screened using PIP Strips™ (Echelon Bioscience). 100 pmole of lysophosphatidic acid, lysophosphocholine, PI, PI(3)P, PI(4)P, PI(5)P, phosphatidyletanolamine, phosphatidylcholine, sphingosine-1-phosphate, PI(3,4)P2, PI(3,5)P2, PI(4,5)P2, PI(3,4,5)P3, phosphatidic acid, and phosphatidylserine was immobilized on a nitrocellulose strip. The strip was incubated with 10 μg/ml or 50 μg/ml human PAP in 4% non-fat dry milk (Valio) in TBS-T overnight at +4° C. The bound PAP was detected using polyclonal PAP antibody produced by us (Vihko et al., 1978, Clin. Chem. 24, 1915-1919), alkalinephosphatase conjugated secondary antibody (Sigma), and the NBT/BCIP color reaction assay (Promega).
row,Compound,binding of PAP to the lipid
1,phosphatidylserine,no affinity
2,"CCCCCCCCCCCCCCCC(=O)OC[C@H](COP(=O)(O)O[C@@H]1[C@H](O)[C@H](OP(=O)(O)O)[C@@H](O)[C@H](O)[C@H]1O)OC(=O)CCCCCCCCCCCCCCC [PI(3)P, phosphatidylinositol 3-phosphate]",binds strongly
3,phosphatidylcholine,no affinity
4,phosphatidylethanolamine,no affinity
5,lysophosphocholine,no affinity
6,Phosphatidylinositol [PI],no affinity
7,"PI(4,5)P2",no affinity
8,CCCCCCCCCCCCC/C=C/[C@@H](O)[C@@H](N)COP(=O)(O)O [sphingosine-1-phosphate],no affinity
9,"PI(3,4)P2",no affinity
10,"PI(3,5)P2",no affinity
11,lysophosphatidic acid,no affinity
12,PI(5)P,no affinity
13,phosphatidic acid,no affinity
14,"PI(3,4,5)P3",no affinity
15,phosphatidylinositol 4-phosphate [PI(4)P],no affinity

# Biological target: T2, PAP purified from human spermatic fluid (Homo sapiens, UniProt P15309)
# T2 construct: purified from human spermatic fluid as previously described; from tissue; host or cells: human spermatic (seminal) fluid
# T2 sequence (P15309 33-386): T1 sequence (P15309 33-386)
# Assay: malachite green assay of the PI(3)P phosphatase activity of PAP
# Type: biochemical
# Details: 50 mM MES buffer, pH 6.5; 0.25 μg PAP per reaction; 37° C., 2 and 5 min
# Method: (E) PI(3)P phosphatase activity of PAP. Phosphatase assays containing 0.01 μg/μl PAP with varying amounts of PI(3)P or buffer were incubated for 5 min at 37° C. and free phosphate was measured by malachite green assay. Initial velocities were calculated from these time courses and plotted against the respective substrate concentration.
# To confirm that PAP hydrolyses PI(3)P the lipid phosphatase activity of PAP towards PI(3)P was studied. […] Being sigmoidal, the kinetic curve was inconsistent with Michaelis-Menten kinetics.
# A malachite green assay (BIOMOL GREEN™, BIOMOL Research Laboratories, Inc.) adapted to a 96-well format was used to measure the released free-phosphate from PI(3)P (Echelon Bioscience Inc.). Briefly, the reaction (total volume of 25 μl) containing 50 mM MES buffer, pH 6.5 and an indicated amount of PI(3)P, was initiated by adding the PAP (0.25 μg per reaction) purified from human spermatic fluid as previously described (specific activity of the enzyme 397 μmol min^−1 mg^−1) (Vihko et al. 1978, Clin. Chem. 24, 1915-1919). After incubation at 37° C. for 2 and 5 min the reaction was terminated by adding 100 μl of BIOMOL GREEN reagent. The green color was allowed to develop for 20 min at room temperature and absorbance was measured at 650 nm. The phosphate released was quantified by comparing to inorganic phosphate standards. […]
row,Compound,lipid phosphatase activity of PAP towards the lipid (use as a substrate)
1,"CCCCCCCCCCCCCCCC(=O)OC[C@H](COP(=O)(O)O[C@@H]1[C@H](O)[C@H](OP(=O)(O)O)[C@@H](O)[C@H](O)[C@H]1O)OC(=O)CCCCCCCCCCCCCCC [PI(3)P, phosphatidylinositol 3-phosphate]",utilizes PI(3)P as a substrate

# Same assay, conditions: 50 mM MES buffer, pH 6.5; 37° C.; inconsistent with Michaelis-Menten kinetics
row,Compound,shape of the kinetic curve (initial velocity against substrate concentration)
1,"CCCCCCCCCCCCCCCC(=O)OC[C@H](COP(=O)(O)O[C@@H]1[C@H](O)[C@H](OP(=O)(O)O)[C@@H](O)[C@H](O)[C@H]1O)OC(=O)CCCCCCCCCCCCCCC [PI(3)P, phosphatidylinositol 3-phosphate]",sigmoidal
